# Laboratory results from patent publication US20260250318A1, “COMPOSITIONS AND METHODS FOR CROSSING THE BLOOD BRAIN BARRIER” (VOYAGER THERAPEUTICS, INC., priority 2022, published 2026).
# Columns and labels:
# [1] = tested on: brain; test: Matured TTM-001 and TTM-002 variants, NGS enrichment in mouse brain; format: in vivo, mice; settings: relative to AAV9 control
# [2] = tested on: brains, heart, liver, muscle, and DRG of the NHPs; test: Maturation of TTM-001 and TTM-002 capsids, NGS enrichment in NHP tissues; format: in vivo; settings: relative to AAV9 control
# Procedure, shortened: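 Variants carry mutations within and flanking the loop IV peptide insert: positions 450–466 were triplet-randomized, while positions 449–466 received low-frequency point mutations. The combined pool went into two NHPs, and each peptide was scored by NGS enrichment ratio against AAV9.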
# [3] = NGS fold-enrichment, brain of mice
# [4] = NGS fold-enrichment, mouse brain
# [5] = NGS fold-enrichment of RNA, NHP brain
# [6] = NGS fold-enrichment, DRG of NHPs
# [7] = NGS fold-enrichment, NHP liver DNA
# [8] = NGS fold-enrichment, NHP liver RNA
# [9] = NGS fold-enrichment, NHP muscle
# [10] = NGS fold-enrichment, RNA, brain of NHPs
# [11] = NGS fold-enrichment, heart of NHPs
# [12] = NGS fold-enrichment, liver DNA of NHPs
# [13] = NGS fold-enrichment, liver RNA of NHPs
# [14] = NGS fold-enrichment, muscle of NHPs
# [15] = NGS fold-enrichment of matured AAV capsid variants, NHP brain, RNA
Sequence,"Fold Enrichment relative to AAV9, Brain (Mouse) [1, 3] [fold]","Fold Enrichment relative to AAV9, DRG (NHP) [2, 6] [fold]","Fold Enrichment relative to AAV9, Brain (NHP) [2, 10] [fold]","Fold Enrichment relative to AAV9, Heart (NHP) [2, 11] [fold]","Fold Enrichment relative to AAV9, Liver DNA (NHP) [2, 12] [fold]","Fold Enrichment relative to AAV9, Liver RNA (NHP) [2, 13] [fold]","Fold Enrichment relative to AAV9, Muscle (NHP) [2, 14] [fold]","Fold Enrichment relative to AAV9, Brain (Mouse) ([1]; mouse brain) [fold]","Fold Enrichment relative to AAV9, Brain (NHP) [2, 15] [fold]","Fold Enrichment relative to AAV9, DRG (NHP) ([2]; NHP DRG) [fold]","Fold Enrichment relative to AAV9, Heart (NHP) ([2]; NHP heart) [fold]","Fold Enrichment relative to AAV9, Liver DNA (NHP) ([2]; NHP liver, DNA) [fold]","Fold Enrichment relative to AAV9, Liver RNA (NHP) ([2]; NHP liver, RNA) [fold]","Fold Enrichment relative to AAV9, Muscle (NHP) ([2]; NHP muscle) [fold]",other results
KTDNGSGSPHSKAHNQQT,55.313,0.000,95.164,0.000,0.027,0.000,0.000,,,,,,,,"Fold Enrichment relative to AAV9, Brain (Mouse) [1, 4]: 55.313 fold; Fold Enrichment relative to AAV9, Brain (NHP) [2, 5]: 95.164 fold; Fold Enrichment relative to AAV9, DRG (NHP) ([2]; NGS fold-enrichment, NHP DRG): 0.000 fold; Fold Enrichment relative to AAV9, Heart (NHP) ([2]; NGS fold-enrichment, NHP heart): 0.000 fold; Fold Enrichment relative to AAV9, Liver DNA (NHP) [2, 7]: 0.027 fold; Fold Enrichment relative to AAV9, Liver RNA (NHP) [2, 8]: 0.000 fold; Fold Enrichment relative to AAV9, Muscle (NHP) [2, 9]: 0.000 fold"
KTDRGSGSPHSKAQNQQT,74.256,0.000,61.419,0.004,0.316,0.211,0.000,,,,,,,,
KTDRMSGSPHSKAQNQQT,104.890,0.000,65.143,0.000,0.103,0.332,0.000,,,,,,,,
KTDRNSGSPHSKAQNQQT,,,,,,,,85.823,54.495,0.000,0.000,0.241,0.823,0.000,
KTDRSSGSPHSKAQNQQT,,,,,,,,123.421,52.737,0.000,0.000,0.085,0.995,0.000,
KTDRTSGSPHSKAQNQQT,,,,,,,,148.498,56.466,0.000,0.000,0.160,0.062,0.000,
KTDVGSGSPHSKAQNQQT,,,,,,,,115.774,51.849,0.000,0.007,0.560,0.385,0.000,
KTDVKSGSPHSKAQNQQT,,,,,,,,53.601,51.296,0.000,0.000,0.224,0.515,0.000,
KTDVNSGSPHSKAQNQQT,,,,,,,,66.127,57.593,0.000,0.000,0.331,0.000,0.000,
KTEARSGSPHSKAQNQQT,62.903,0.000,73.349,0.000,0.118,0.695,0.000,,,,,,,,
KTEDKSGSPHSKAQNQQT,70.071,0.000,68.813,0.000,0.000,0.000,0.000,,,,,,,,
KTEDLSGSPHSKAQNQQT,,,,,,,,70.198,54.156,0.000,0.000,0.132,1.193,0.000,
KTEDRSGSPHSKAQNQQT,66.887,0.000,61.756,0.000,0.408,1.004,0.000,,,,,,,,
KTEFGHDSPHKSGQNQQT,,,,,,,,,,,,,,,"Fold Enrichment relative to AAV9, Brain (Mouse) [1, 4]: 16.337 fold; Fold Enrichment relative to AAV9, Brain (NHP) [2, 5]: 77.245 fold; Fold Enrichment relative to AAV9, DRG (NHP) ([2]; NGS fold-enrichment, NHP DRG): 0.000 fold; Fold Enrichment relative to AAV9, Heart (NHP) ([2]; NGS fold-enrichment, NHP heart): 0.124 fold; Fold Enrichment relative to AAV9, Liver DNA (NHP) [2, 7]: 0.063 fold; Fold Enrichment relative to AAV9, Liver RNA (NHP) [2, 8]: 0.561 fold; Fold Enrichment relative to AAV9, Muscle (NHP) [2, 9]: 0.000 fold"
KTEFVSGSPHSKAQNQQT,69.788,0.000,59.306,0.000,0.276,0.196,0.000,,,,,,,,
KTEGISGSPHSKAQNQQT,,,,,,,,78.303,53.270,0.000,0.000,0.010,0.000,0.000,
KTEGKHDSPHKSGQNQQT,,,,,,,,,,,,,,,"Fold Enrichment relative to AAV9, Brain (Mouse) [1, 4]: 10.345 fold; Fold Enrichment relative to AAV9, Brain (NHP) [2, 5]: 98.384 fold; Fold Enrichment relative to AAV9, DRG (NHP) ([2]; NGS fold-enrichment, NHP DRG): 0.000 fold; Fold Enrichment relative to AAV9, Heart (NHP) ([2]; NGS fold-enrichment, NHP heart): 0.056 fold; Fold Enrichment relative to AAV9, Liver DNA (NHP) [2, 7]: 0.000 fold; Fold Enrichment relative to AAV9, Liver RNA (NHP) [2, 8]: 0.000 fold; Fold Enrichment relative to AAV9, Muscle (NHP) [2, 9]: 0.000 fold"
KTEGLSGSPHSKAQNQQT,,,,,,,,104.529,52.891,0.000,0.000,0.155,0.104,0.020,
KTEHLSGSPHSKAQNQQT,69.494,0.000,83.080,0.000,0.189,0.021,0.012,,,,,,,,"Fold Enrichment relative to AAV9, Brain (Mouse) [1, 4]: 69.494 fold; Fold Enrichment relative to AAV9, Brain (NHP) [2, 5]: 83.080 fold; Fold Enrichment relative to AAV9, DRG (NHP) ([2]; NGS fold-enrichment, NHP DRG): 0.000 fold; Fold Enrichment relative to AAV9, Heart (NHP) ([2]; NGS fold-enrichment, NHP heart): 0.000 fold; Fold Enrichment relative to AAV9, Liver DNA (NHP) [2, 7]: 0.189 fold; Fold Enrichment relative to AAV9, Liver RNA (NHP) [2, 8]: 0.021 fold; Fold Enrichment relative to AAV9, Muscle (NHP) [2, 9]: 0.012 fold"
KTEHVSGSPHSKAQNQQT,,,,,,,,71.410,58.228,0.000,0.024,0.141,0.433,0.000,
KTEITSGSPHSKAQNQQT,76.686,0.000,79.620,0.163,0.074,0.332,0.000,,,,,,,,"Fold Enrichment relative to AAV9, Brain (Mouse) [1, 4]: 76.686 fold; Fold Enrichment relative to AAV9, Brain (NHP) [2, 5]: 79.620 fold; Fold Enrichment relative to AAV9, DRG (NHP) ([2]; NGS fold-enrichment, NHP DRG): 0.000 fold; Fold Enrichment relative to AAV9, Heart (NHP) ([2]; NGS fold-enrichment, NHP heart): 0.163 fold; Fold Enrichment relative to AAV9, Liver DNA (NHP) [2, 7]: 0.074 fold; Fold Enrichment relative to AAV9, Liver RNA (NHP) [2, 8]: 0.332 fold; Fold Enrichment relative to AAV9, Muscle (NHP) [2, 9]: 0.000 fold"
